# Where two headings read alike, the source gives them in different places.
# Assays:
# [1] = test system: HCT-116 cells; assay: MTT cytotoxicity in HCT-116 cells; format: cell-based; conditions: Homo sapiens
# Summary of the method: (§1)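 Standard MTT assay: cells seeded 24 h, treated with compounds at 6.25–100 μM in triplicate, then grown for 96 h total. Run under normoxia (air throughout) or hypoxia (95% N2 for 24 h, then 72 h normoxia). MTT added for 4 h, formazan dissolved in DMSO, absorbance read at 570 nm.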
# [2] = test system: TNF-α release of LPS-induced N9 cells; assay: TNF-α release of LPS-induced N9 cells (cytokine kit); format: cell-based, murine; conditions: compound 1 μM, LPS 1 μg/mL, 48 h
# Protocol: (§2) N9 cells, which were in the logarithmic phase, were incubated for 24 h by adherent culture. Subsequently, the medium was changed to new one without serum. The cells were treated with different concentration of tested compounds. After specific time in the LPS condition, the supernatants were collected and analyzed.
# (§3) The secreted level of TNF-α and IL-6 was measured using mouse Th1/Th2/Th17 Cytokine Kit, purchased from BD Pharningen. The data was analyzed by FCAP Array v3.0. IL-2, IL-4, IL-10, IL-17A, and IFN-γ were not detected in the experiment.
# [3] = test system: NO release of LPS-induced microglial N9 cells; assay: Inhibition of NO release in LPS-induced N9 cells (Griess); format: cell-based, murine; conditions: Mus musculus, 1 μg/mL LPS for 48 h, NO level in medium
# Summary of the method: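 Log-phase N9 microglia were grown adherent for 24 h, switched to serum-free medium, then given test compounds under LPS stimulation. Nitrite in supernatant was quantified by Griess reaction at 540 nm; MTT-IC20 was determined to exclude cytotoxic effects.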
# [4] = NO capture analysis with sodium nitroprusside (Griess); conditions: 0.01-10 μM compound, 0.5 mM SNP solution, 1 h, room temperature
# Protocol: Sodium nitroprusside (SNP) is a NO donor. In this experiment, the reason of the DCH reducing NO level was preliminary explored. […] That means the main reason of the NO level reduction is due to species-specific effect.
# SNP was dissolved in PBS to prepare the 100 mM stock solution. In this experiment, SNP solution of […] was added to 975 μL PBS solution which included different concentration of tested compounds. After 60 min under r.t. condition, the concentration of NO2^− was tested using Griess assay.
# 6l (0.01 μM, 0.1 μM, 1 μM, and 10 μM) or 5n (0.01 μM, 0.1 μM, 1 μM, and 10 μM) was added to a concentration of 0.5 mM SNP solution. […] Data were shown as mean ± SD. *** p < 0.001 compared with control group.
# [5] = test system: IL-6 release of LPS-induced N9 cells; assay: IL-6 release of LPS-induced N9 cells (cytokine kit); format: cell-based, murine; conditions: compound 1 μM, LPS 1 μg/mL, 48 h
# Protocol: as §2, §3
# [6] = MTT cytotoxicity in N9 cells; format: cell-based, murine; conditions: mouse, N9 microglial cells, cytotoxic activity
# Summary of the method: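 N9 microglial cells seeded at 1.5–3 × 10^4 cells/mL, grown 24 h, then exposed to compounds at 6.25–100 μM in triplicate for 96 h. Viability by MTT (4 h), formazan dissolved in DMSO, absorbance at 570 nm; MTT-IC20 derived.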
# [7] = test system: A549 cells; assay: MTT cytotoxicity in A549 cells; format: cell-based; conditions: Homo sapiens
# Summary of the method: as §1
# [8] = test system: HT-29 cells; assay: MTT cytotoxicity in HT-29 cells; format: cell-based, Human; conditions: for IC50: Homo sapiens, MTT
# [9] = test system: MDA-MB-231 cells; assay: MTT cytotoxicity in MDA-MB-231 cells; format: cell-based; conditions: Homo sapiens
# Summary of the method: as §1
smiles,measurement,setting,value
Cc1ccc2c(OCc3cn(CCO[C@H]4O[C@@H]5O[C@@]6(C)CC[C@H]7[C@H](C)CC[C@@H]([C@H]4C)[C@@]57OO6)nn3)cc(=O)oc2c1C [5n],IC50,"[1]; HCT-116, hypoxia 24 h then normoxia 72 h, read-out: IC50 HCT-116 Hypoxia",32.9 µM
same,IC50,"[1]; HCT-116, normoxia 96 h, read-out: IC50 HCT-116 Normoxia",25.6 µM
same,melting point,,91 to 93 °C
same,inhibition at 1 µM,[2]; Mus musculus,22%
same,TNF-α,[2],3508.08 ± 368.72 pg/mL
same,IC50,[3],0.22 µM
same,NO radical scavenging activity,[4],had NO radical scavenging activity
same,inhibition at 1 µM,[5]; Mus musculus,43.1%
same,IL-6,[5],656.75 ± 79.49 pg/mL
same,IC20,[6],2.44 µM
same,IC50,"[7]; A549, hypoxia 24 h then normoxia 72 h, read-out: IC50 A549 Hypoxia",2.44 µM
same,IC50,"[7]; A549, normoxia 96 h, read-out: IC50 A549 Normoxia",2.11 µM
same,cell viability of HT-29 cells,"[8]; 6.25-100 μM for 48 h, MTT staining",decreased in a dose-dependent manner
same,IC50,"[8]; HT-29, hypoxia 24 h then normoxia 72 h, read-out: IC50 HT-29 Hypoxia",8.9 µM
same,IC50,"[8]; HT-29, normoxia 96 h, read-out: IC50 HT-29 Normoxia",10.2 µM
same,IC50,"[9]; MDA-MB-231, hypoxia 24 h then normoxia 72 h, read-out: IC50 MDA-MB-231 Hypoxia",11.7 µM
same,IC50,"[9]; MDA-MB-231, normoxia 96 h, read-out: IC50 MDA-MB-231 Normoxia",11 µM
